{"source": "PubChem BioAssay AID254", "about": "(DTP/NCI, 2004)", "tested_on": "L1210 leukemia iv in BDF1 mice, survival T/C", "assay": "NCI In Vivo Anticancer Drug Screen. Data for tumor model L1210 Leukemia (intravenous) in B6D2F1 (BDF1) mice", "details": "higher = longer survival", "method": "The antitumor activity of compounds was measured in mice bearing transplantable tumors. Survival or tumor size were measured and the results are expressed as the measurement made in the treated group (T) divided by the measurement made in the vehicle treated control group (C). The tumor model used in this assay is L1210 Leukemia (intravenous) in B6D2F1 (BDF1) mice", "key": {"[1]": {"details": "endpoint: mean survival time, dose: 3.7 mg/kg/injection, schedule: Q01DX001 (ip), vehicle: other"}, "[2]": {"details": "endpoint: mean survival time, dose: 7.0 mg/kg/injection, schedule: Q01DX001 (ip), vehicle: other"}, "[3]": {"details": "endpoint: mean survival time, dose: 15.0 mg/kg/injection, schedule: Q01DX001 (ip), vehicle: other"}, "[4]": {"details": "endpoint: mean survival time, dose: 31.0 mg/kg/injection, schedule: Q01DX001 (ip), vehicle: other"}, "[5]": {"details": "endpoint: mean survival time, dose: 62.0 mg/kg/injection, schedule: Q01DX001 (ip), vehicle: other"}}, "note": "Several values for one entry are separate records, joined by “and”; a condition that tells them apart may be missing. Identical values can stand only once. Inconclusive results and toxic doses are left out.", "data": [{"smiles": "O=NN(CCCl)C(=O)NC1CSCSC1", "values": [{"measurement": "T/C", "setting": "endpoint: mean survival time, dose: 2.0 mg/kg/injection, schedule: Q01DX001 (ip), vehicle: other", "value": "106 % of control and 102 % of control"}, {"measurement": "T/C", "setting": "endpoint: mean survival time, dose: 4.0 mg/kg/injection, schedule: Q01DX001 (ip), vehicle: other", "value": "109 % of control"}, {"measurement": "T/C", "setting": "endpoint: mean survival time, dose: 4.5 mg/kg/injection, schedule: Q04DX004 (ip), vehicle: saline with Tween-80", "value": "293 % of control"}, {"measurement": "T/C", "setting": "endpoint: mean survival time, dose: 7.0 mg/kg/injection, schedule: Q04DX004 (ip), vehicle: saline with Tween-80", "value": "443 % of control"}, {"measurement": "T/C", "setting": "endpoint: mean survival time, dose: 8.0 mg/kg/injection, schedule: Q01DX001 (ip), vehicle: other", "value": "156 % of control and 161 % of control"}, {"measurement": "T/C", "setting": "endpoint: mean survival time, dose: 11.0 mg/kg/injection, schedule: Q04DX004 (ip), vehicle: saline with Tween-80", "value": "735 % of control"}, {"measurement": "T/C", "setting": "endpoint: mean survival time, dose: 16.5 mg/kg/injection, schedule: Q01DX001 (ip), vehicle: other", "value": "393 % of control and 311 % of control"}, {"measurement": "T/C", "setting": "endpoint: mean survival time, dose: 16.5 mg/kg/injection, schedule: Q04DX004 (ip), vehicle: saline with Tween-80", "value": "1060 % of control"}, {"measurement": "T/C", "setting": "endpoint: mean survival time, dose: 33.0 mg/kg/injection, schedule: Q01DX001 (ip), vehicle: other", "value": "490 % of control and 588 % of control"}]}, {"smiles": "Nc1ccn(C2OC(COC(=O)C34CC5CC(CC(C5)C3)C4)C(O)C2O)c(=O)n1", "note": "(centres undefined)", "values": [{"measurement": "T/C", "setting": "endpoint: mean survival time, dose: 100.0 mg/kg/injection, schedule: Q01DX001 (ip), vehicle: other", "value": "150 % of control and 178 % of control"}, {"measurement": "T/C", "setting": "endpoint: mean survival time, dose: 200.0 mg/kg/injection, schedule: Q01DX001 (ip), vehicle: other", "value": "189 % of control and 215 % of control"}, {"measurement": "T/C", "setting": "endpoint: mean survival time, dose: 400.0 mg/kg/injection, schedule: Q01DX001 (ip), vehicle: other", "value": "464 % of control and 281 % of control"}]}, {"smiles": "CC(CN1CC(=O)NC(=O)C1)N1CC(=O)NC(=O)C1", "note": "(centres undefined)", "values": [{"measurement": "T/C", "setting": "endpoint: mean survival time, dose: 108.0 mg/kg/injection, schedule: Q04DX003 (ip), vehicle: Klucel (hydroxypropylcellulose) (HPC)", "value": "165 % of control"}, {"measurement": "T/C", "setting": "endpoint: mean survival time, dose: 180.0 mg/kg/injection, schedule: Q04DX003 (ip), vehicle: Klucel (hydroxypropylcellulose) (HPC)", "value": "176 % of control"}, {"measurement": "T/C", "setting": "endpoint: mean survival time, dose: 300.0 mg/kg/injection, schedule: Q04DX003 (ip), vehicle: Klucel (hydroxypropylcellulose) (HPC)", "value": "191 % of control"}]}, {"smiles": "O=NN(CCF)C(=O)NC1CCSCC1", "values": [{"measurement": "T/C", "setting": "[1]", "value": "154 % of control"}, {"measurement": "T/C", "setting": "[2]", "value": "206 % of control and 227 % of control"}, {"measurement": "T/C", "setting": "[3]", "value": "365 % of control and 575 % of control"}, {"measurement": "T/C", "setting": "[4]", "value": "634 % of control and 642 % of control"}, {"measurement": "T/C", "setting": "[5]", "value": "515 % of control and 856 % of control"}]}, {"smiles": "O=NN(CCF)C(=O)NC1CSCSC1", "values": [{"measurement": "T/C", "setting": "[1]", "value": "124 % of control"}, {"measurement": "T/C", "setting": "[2]", "value": "186 % of control and 204 % of control"}, {"measurement": "T/C", "setting": "[3]", "value": "351 % of control and 417 % of control"}, {"measurement": "T/C", "setting": "[4]", "value": "582 % of control and 744 % of control"}, {"measurement": "T/C", "setting": "[5]", "value": "433 % of control and 846 % of control"}]}, {"smiles": "O=NN(CCCl)C(=O)NC1CS(=O)(=O)CS(=O)(=O)C1", "values": [{"measurement": "T/C", "setting": "endpoint: mean survival time, dose: 8.0 mg/kg/injection, schedule: Q04DX004 (ip), vehicle: saline with Tween-80", "value": "177 % of control"}, {"measurement": "T/C", "setting": "endpoint: mean survival time, dose: 12.0 mg/kg/injection, schedule: Q04DX004 (ip), vehicle: saline with Tween-80", "value": "529 % of control"}, {"measurement": "T/C", "setting": "endpoint: mean survival time, dose: 18.0 mg/kg/injection, schedule: Q04DX004 (ip), vehicle: saline with Tween-80", "value": "687 % of control"}]}, {"smiles": "COc1cc([C@@H]2c3cc4c(cc3[C@@H](OC3OC5COC(C)OC5C(O)C3O)[C@H]3COC(=O)[C@H]23)OCO4)cc(OC)c1O", "note": "(some centres undefined)", "values": [{"measurement": "T/C", "setting": "endpoint: mean survival time, dose: 12.0 mg/kg/injection, schedule: Q04DX003 (ip), vehicle: saline", "value": "117 % of control"}, {"measurement": "T/C", "setting": "endpoint: mean survival time, dose: 40.0 mg/kg/injection, schedule: Q04DX003 (ip), vehicle: saline", "value": "297 % of control"}, {"measurement": "T/C", "setting": "endpoint: mean survival time, dose: 60.0 mg/kg/injection, schedule: Q04DX003 (ip), vehicle: saline", "value": "447 % of control"}]}, {"smiles": "NC(=O)c1csc(C2OC(CO)C(O)C2O)n1", "note": "(centres undefined)", "values": [{"measurement": "T/C", "setting": "endpoint: median survival time, dose: 330.0 mg/kg/injection, schedule: Q01DX009 (ip), vehicle: water", "value": "241 % of control"}, {"measurement": "T/C", "setting": "endpoint: median survival time, dose: 500.0 mg/kg/injection, schedule: Q01DX009 (ip), vehicle: water", "value": "265 % of control"}, {"measurement": "T/C", "setting": "endpoint: median survival time, dose: 750.0 mg/kg/injection, schedule: Q01DX009 (ip), vehicle: water", "value": "268 % of control"}]}]}
